Assay results: US20060067931A1, “Receptor for lysophosphatidylcholine in vascular endothelial cells and use thereof” (priority 2004, published 2006)

Assays:
Type in all cases: cell-based, human
[1] = test system: monocyte transmigration across HBMEC; experiment: Monocyte transmigration assay across HBMEC
GPR4 mRNA [2] = experiment: RT-PCR of GPR4 mRNA in HMEC; conditions: within 2 hours, TNF-α 100 U/ml or H2O2
GPR4 mRNA [3] = experiment: RT-PCR of GPR4 mRNA in HBMEC; conditions: within 2 hours, TNF-α 100 U/ml or H2O2

| Compound | effect on basal monocyte transmigration [1] | inhibition of LPC-induced monocyte transmigration [1] | GPR4 mRNA over control (GPR4 mRNA [2]) | GPR4 mRNA over control (GPR4 mRNA [3]) |
| --- | --- | --- | --- | --- |
| C3 transferase | did not change basal monocyte transmigration | about 65% |  |  |
| TNF-α |  |  | not HMEC | increased GPR4 mRNA over control |
| OO [H2O2] |  |  | not HMEC | increased GPR4 mRNA over control |
